Results reported in patent publication US9018208B2, “Heterocycles as potassium channel modulators” (Icagen Inc., priority 2007, dated 2015).
pEC50: −log10 of the molar value.

The molecules below were run on SH-SY5Y M-currents (KCNQ2, KCNQ3 and KCNQ5) (assay: SH-SY5Y native cell line FLIPR assay (voltage-sensitive dye DiBAC)). Details: FLIPR assay, SH-SY5Y native cell line; Table 1; read-out: SH-SY5Y EC50.
Type: cell-based, mouse neuroblastoma, rat glioma hybrid cell line
Procedure, shortened: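 Response is peak DiBAC fluorescence change, normalised to the maximum from a positive control agent, sampled every 30 s over 25 min. Before compound addition, SH-SY5Y cells differentiated with PGE1 plus isomethylbutylxanthine were dye-loaded for 1 h in EBSS with […] DiBAC.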

| pEC50 | Structure (SMILES) |
| --- | --- |
| > 6.30 | CC(C)(C)Cc1c(NC(=O)Cc2ccc(Cl)cc2)nc2ccc(C(F)(F)F)cn12 [Compound 27, 2-(4-chlorophenyl)-N-(3-neopentyl-6-(trifluoromethyl)imidazo[1,2-a]pyridin-2-yl)acetamide] |
| 5.00 to 5.52 | CC(CC(=O)Nc1nc2ccc(C(F)(F)F)cn2c1-c1nccs1)C(F)(F)F (centres unmarked) [Compound 83, 4,4,4-trifluoro-3-methyl-N-(3-(thiazol-2-yl)-6-(trifluoromethyl)imidazo[1,2-a]pyridin-2-yl)butanamide] |
| > 6.30 | CC(C)(C)Cc1c(NC(=O)CC2CC2)nc2ccc(C(F)(F)F)cn12 [Compound 57, 2-cyclopropyl-N-(3-neopentyl-6-(trifluoromethyl)imidazo[1,2-a]pyridin-2-yl)acetamide] |
| > 6.30 | CC(C)(C)CC(=O)Nc1nc2ccc(C(F)(F)F)cn2c1C1CCCC1 [Compound 48, N-(3-cyclopentyl-6-(trifluoromethyl)imidazo[1,2-a]pyridin-2-yl)-3,3-dimethylbutanamide] |

Same assay, conditions: FLIPR assay, SH-SY5Y native cell line; Table 2; read-out: SH-SY5Y EC50

| Structure (SMILES) | pEC50 |
| --- | --- |
| CC(C)(C)OCCC(=O)Nc1nc2ccc(F)cn2c1-c1cccc(OC(F)(F)F)c1 [Compound 277, 3-tert-butoxy-N-(6-fluoro-3-(3-(trifluoromethoxy)phenyl)imidazo[1,2-a]pyridin-2-yl)propanamide] | > 6.30 |
| CC(C)(C)CC(=O)Nc1nc2ccc(F)cn2c1-c1cc(F)cc(F)c1 [Compound 227, N-(3-(3,5-difluorophenyl)-6-fluoroimidazo[1,2-a]pyridin-2-yl)-3,3-dimethylbutanamide] | > 6.30 |
| O=C(CC1CCCC1)Nc1nc2ccc(F)cn2c1-c1ccccc1 [Compound 94, 2-cyclopentyl-N-(6-fluoro-3-phenylimidazo[1,2-a]pyridin-2-yl)acetamide] | > 6.30 |
| O=C(CC1CCCCC1)Nc1nc2ccc(F)cn2c1-c1ccc(C(F)(F)F)cc1 [Compound 157, 2-cyclohexyl-N-(6-fluoro-3-(4-(trifluoromethyl)phenyl)imidazo[1,2-a]pyridin-2-yl)acetamide] | > 6.30 |
| O=C(Nc1nc2ccc(F)cn2c1-c1cccc(Cl)c1)C1CCC1 [Compound 335, N-(3-(3-chlorophenyl)-6-fluoroimidazo[1,2-a]pyridin-2-yl)cyclobutanecarboxamide] | 5.52 to 6.30 |
| O=C(Cc1ccc(F)cc1)Nc1nc2cc(C(F)(F)F)ccn2c1-c1ccc(F)cc1 [Compound 111, 2-(4-fluorophenyl)-N-(3-(4-fluorophenyl)-7-(trifluoromethyl)imidazo[1,2-a]pyridin-2-yl)acetamide] | 5.52 to 6.30 |
| O=C(Cc1cccc(Cl)c1)Nc1nc2ccc(F)cn2c1-c1cccc(Cl)c1 [Compound 300, 2-(3-chlorophenyl)-N-(3-(3-chlorophenyl)-6-fluoroimidazo[1,2-a]pyridin-2-yl)acetamide] | > 6.30 |
| O=C(Cc1ccc(F)cc1)Nc1nc2ccc(Cl)nn2c1-c1ccc(C(F)(F)F)cc1 [Compound 272, N-(6-chloro-3-(4-(trifluoromethyl)phenyl)imidazo[1,2-b]pyridazin-2-yl)-2-(4-fluorophenyl)acetamide] | 5.52 to 6.30 |
| CC1(CC(=O)Nc2nc3ccc(F)cn3c2-c2ccc(F)cc2)CCCC1 [Compound 179, N-(6-fluoro-3-(4-fluorophenyl)imidazo[1,2-a]pyridin-2-yl)-2-(1-methylcyclopentyl)acetamide] | > 6.30 |
| Cc1ccc(-c2c(NC(=O)CC(C)(C)C)nc3ccc(F)cn23)cc1 [Compound 273, N-(6-fluoro-3-p-tolylimidazo[1,2-a]pyridin-2-yl)-3,3-dimethylbutanamide] | 5.52 to 6.30 |
| O=C(CC1CCCC1)Nc1nc2ccc(F)cn2c1-c1ccc(F)cc1F [Compound 118, 2-cyclopentyl-N-(3-(2,4-difluorophenyl)-6-fluoroimidazo[1,2-a]pyridin-2-yl)acetamide] | 5.52 to 6.30 |

Second part, the molecule after the results:

| pEC50 | Structure (SMILES) |
| --- | --- |
| 5.52 to 6.30 | N#Cc1ccc(CC(=O)Nc2nc3ccc(F)cn3c2-c2ccc(F)cc2)cc1 [Compound 137, 2-(4-cyanophenyl)-N-(6-fluoro-3-(4-fluorophenyl)imidazo[1,2-a]pyridin-2-yl)acetamide] |
| 5.52 to 6.30 | O=C(CCC(F)(F)F)Nc1nc2ccc(F)cn2c1-c1ccccc1 [Compound 97, 4,4,4-trifluoro-N-(6-fluoro-3-phenylimidazo[1,2-a]pyridin-2-yl)butanamide] |
| 5.52 to 6.30 | O=C(Cc1ccc(F)cc1)Nc1nc2ccccn2c1-c1cccc(C(F)(F)F)c1 [Compound 338, 2-(4-fluorophenyl)-N-(3-(3-(trifluoromethyl)phenyl)imidazo[1,2-a]pyridin-2-yl)acetamide] |
| > 6.30 | O=C(Cc1ccccc1)Nc1nc2ccc(C(F)(F)F)cn2c1-c1ccc(F)cc1 [Compound 119, N-(3-(4-fluorophenyl)-6-(trifluoromethyl)imidazo[1,2-a]pyridin-2-yl)-2-phenylacetamide] |
| > 6.30 | O=C(Cc1ccc(F)cc1)Nc1nc2ccc(F)cn2c1-c1cccc(Cl)c1 [Compound 148, N-(3-(3-chlorophenyl)-6-fluoroimidazo[1,2-a]pyridin-2-yl)-2-(4-fluorophenyl)acetamide] |
| > 6.30 | O=C(CC1CCC1)Nc1nc2ccc(F)cn2c1-c1ccc(C(F)(F)F)cc1 [Compound 185, 2-cyclobutyl-N-(6-fluoro-3-(4-(trifluoromethyl)phenyl)imidazo[1,2-a]pyridin-2-yl)acetamide] |
| 5.00 to 5.52 | CO[C@@H](C(=O)Nc1nc2ccc(F)cn2c1-c1ccc(OC(F)(F)F)cc1)c1ccccc1 [Compound 253, (R)—N-(6-fluoro-3-(4-(trifluoromethoxy)phenyl)imidazo[1,2-a]pyridin-2-yl)-2-methoxy-2-phenyl acetamide] |
| 5.52 to 6.30 | O=C(Cc1ccc(Cl)cc1)Nc1nc2ccc(F)cn2c1-c1ccc(F)cc1 [Compound 145, 2-(4-chlorophenyl)-N-(6-fluoro-3-(4-fluorophenyl)imidazo[1,2-a]pyridin-2-yl)acetamide] |
| > 6.30 | O=C(Cc1ccccc1)Nc1nc2ccc(F)cn2c1-c1cc(F)cc(F)c1 [Compound 228, N-(3-(3,5-difluorophenyl)-6-fluoroimidazo[1,2-a]pyridin-2-yl)-2-phenylacetamide] |
| > 6.30 | CC(C)(C)CCC(=O)Nc1nc2ccc(F)cn2c1-c1ccc(C(F)(F)F)cc1 [Compound 188, N-(6-fluoro-3-(4-(trifluoromethyl)phenyl)imidazo[1,2-a]pyridin-2-yl)-4,4-dimethylpentanamide] |
| > 6.30 | O=C(Cc1ccccc1)Nc1nc2ccc(F)cn2c1-c1ccc(F)c(F)c1 [Compound 211, N-(3-(3,4-difluorophenyl)-6-fluoroimidazo[1,2-a]pyridin-2-yl)-2-phenylacetamide] |
| > 6.30 | CC(C)(C)CC(=O)Nc1nc2ccc(C(F)(F)F)cn2c1-c1ccc(F)cc1 [Compound 120, N-(3-(4-fluorophenyl)-6-(trifluoromethyl)imidazo[1,2-a]pyridin-2-yl)-3,3-dimethylbutanamide] |
| > 6.30 | CC(C)(C)CC(=O)Nc1nc2c(F)cc(F)cn2c1-c1ccc(OC(F)(F)F)cc1 [Compound 262, N-(6,8-difluoro-3-(4-(trifluoromethoxy)phenyl)imidazo[1,2-a]pyridin-2-yl)-3,3-dimethylbutanamide] |
| > 6.30 | CC(C(=O)Nc1nc2ccc(F)cn2c1-c1ccc(C(F)(F)F)cc1)C(C)(C)C (centres unmarked) [Compound 234, N-(6-fluoro-3-(4-(trifluoromethyl)phenyl)imidazo[1,2-a]pyridin-2-yl)-2,3,3-trimethylbutanamide] |

Same assay, conditions: FLIPR assay, SH-SY5Y native cell line; Table 4; read-out: SH-SY5Y EC50

| pEC50 | Structure (SMILES) |
| --- | --- |
| 5.52 to 6.30 | Cc1cccc2nc(NC(=O)CC(C)C(F)(F)F)c(-c3cccc(C(F)(F)F)c3)n12 (centres unmarked) [Compound 420, 4,4,4-trifluoro-3-methyl-N-(5-methyl-3-(3-(trifluoromethyl)phenyl)imidazo[1,2-a]pyridin-2-yl)butanamide] |

Same assay, conditions: FLIPR assay, SH-SY5Y native cell line; Table 5; read-out: SH-SY5Y EC50

| pEC50 | Structure (SMILES) |
| --- | --- |
| 5.00 to 5.52 | Cc1c(NC(=O)Cc2ccc(F)cc2)nc2ccc(F)cn12 [Compound 422, N-(6-fluoro-3-methylimidazo[1,2-a]pyridin-2-yl)-2-(4-fluorophenyl)acetamide] |
| 5.00 to 5.52 | Cc1c(NC(=O)CC(F)(F)F)nc2ccc(F)cn12 [Compound 424, 3,3,3-trifluoro-N-(6-fluoro-3-methylimidazo[1,2-a]pyridin-2-yl)propanamide] |
| 5.00 to 5.52 | C=Cc1c(NC(=O)CC(F)(F)F)nc2cc(C(F)(F)F)ccn12 [Compound 427, 3,3,3-trifluoro-N-(7-(trifluoromethyl)-3-vinylimidazo[1,2-a]pyridin-2-yl)propanamide] |

Same assay, conditions: SH-SY5Y native cell line, FLIPR assay (Table 3); read-out: SH-SY5Y EC50

| pEC50 | Structure (SMILES) |
| --- | --- |
| 5.00 to 5.52 | CC(C)(C)CC(=O)N(C(=O)CC(C)(C)C)c1nc2ccc(F)cn2c1-c1cccc(C(F)(F)F)n1 [Compound 357, N-(3,3-dimethylbutanoyl)-N-(6-fluoro-3-(6-(trifluoromethyl)pyridin-2-yl)imidazo[1,2-a]pyridin-2-yl)-3,3-dimethylbutanamide] |
| 5.00 to 5.52 | Cc1ccc(-c2c(N(C(=O)CC(C)(C)C)C(=O)CC(C)(C)C)nc3ccc(F)cn23)nc1 [Compound 356, N-(3,3-dimethylbutanoyl)-N-(6-fluoro-3-(5-methylpyridin-2-yl)imidazo[1,2-a]pyridin-2-yl)-3,3-dimethylbutanamide] |
| 5.00 to 5.52 | CC(C)(C)CC(=O)Nc1nc2ccc(F)cn2c1-c1ccccn1 [Compound 347, N-(6-fluoro-3-(pyridin-2-yl)imidazo[1,2-a]pyridin-2-yl)-3,3-dimethylbutanamide] |
| > 6.30 | CC(C)(C)CC(=O)Nc1nc2ccc(C(F)(F)F)cn2c1-c1nc2ccccc2s1 [Compound 376, N-(3-(benzo[d]thiazol-2-yl)-6-(trifluoromethyl)imidazo[1,2-a]pyridin-2-yl)-3,3-dimethylbutanamide] |

Same assay, conditions: read-out: SH-SY5Y_EC50

| pEC50 | Structure (SMILES) |
| --- | --- |
| 5.00 | Cc1c(NC(=O)CC(F)(F)F)nc2ccc(F)cn12 [Compound 424, 3,3,3-trifluoro-N-(6-fluoro-3-methylimidazo[1,2-a]pyridin-2-yl)propanamide] |
